# Patent US8865865B2, “N-terminally modified tetrapeptide derivatives having a C-terminal arginine mimetic” (Philipps-Universitat Marburg, priority 2008, dated 2014)
# Square brackets hold non-standard residues; d marks the D form. Peptide text beside a SMILES is read from it. * marks the point of attachment. hArg = N=C(N)NCCCC[C@H](N)C(=O)O; Agmatine = N=C(N)NCCCCN*; PhAc = O=C(Cc1ccccc1)*
# Test system: MDCK cells
# Assay: not given
# Details: 25 μM inhibitor, 72 h
row,Compound,vitality of the cells
1,CC(C)[C@H](NC(=O)[C@H](CCCNC(=N)N)NC(=O)Cc1ccccc1)C(=O)N[C@@H](CCCNC(=N)N)C(=O)NCc1ccc(C(=N)N)cc1 [Inhibitor 1],not influenced

# Target: furin (Homo sapiens, UniProt P09958)
# Assay: not given
# Details: Kacprzak et al., J. Biol. Chem. 2004; read-out: inhibition constant (Ki value) for furin; cited from earlier work
# Chain of furin (P09958 108-794, species assumed): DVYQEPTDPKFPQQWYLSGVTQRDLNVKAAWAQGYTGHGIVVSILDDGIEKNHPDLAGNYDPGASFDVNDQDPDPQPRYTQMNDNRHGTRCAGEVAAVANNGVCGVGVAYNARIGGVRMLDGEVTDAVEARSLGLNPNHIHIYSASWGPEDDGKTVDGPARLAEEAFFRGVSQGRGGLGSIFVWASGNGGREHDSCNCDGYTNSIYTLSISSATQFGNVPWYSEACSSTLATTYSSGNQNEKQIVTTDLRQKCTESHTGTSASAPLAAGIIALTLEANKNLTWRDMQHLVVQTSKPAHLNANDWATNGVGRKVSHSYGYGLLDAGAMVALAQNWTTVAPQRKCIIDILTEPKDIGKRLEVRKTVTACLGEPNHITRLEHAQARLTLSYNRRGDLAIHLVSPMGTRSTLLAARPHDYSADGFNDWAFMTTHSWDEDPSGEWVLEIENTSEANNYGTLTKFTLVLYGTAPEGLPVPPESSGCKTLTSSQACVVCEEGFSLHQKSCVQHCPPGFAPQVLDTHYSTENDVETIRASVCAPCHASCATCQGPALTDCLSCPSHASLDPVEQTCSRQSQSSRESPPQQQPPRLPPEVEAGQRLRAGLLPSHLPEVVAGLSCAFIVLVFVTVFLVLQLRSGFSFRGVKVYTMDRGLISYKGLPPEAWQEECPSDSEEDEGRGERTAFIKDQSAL
row,Compound,Ki
1,Nona-D-arginine-amide,0.0013 µM
2,hexa-D-arginine-amide,0.0076 µM

# Target: T1, Recombinantly produced human furin (Homo sapiens, UniProt P09958)
# T1 construct: made in house
# Assay: Enzyme kinetic studies to determine the inhibitory effect on furin (fluorogenic substrate Pyr-Arg-Thr-Lys-Arg-AMC)
# Format: biochemical
# Details: Table 2; substrate 12.5 μM, furin approx. 0.95 nM, competitive reversible model; read-out: Ki value for the inhibition of furin
# Method: The determination of the inhibitory effect was carried out with a fluorescence plate reader Safire^2 from the Tecan company (λEx=380 nm, λEm=460 nm) and Pyr-Arg-Thr-Lys-Arg-AMC (Bachem, No: I-1650) as the substrate. Recombinantly produced human furin (Kacprzak, M. M. et al., J. Biol. Chem., 2004, 279, 36788-36794) was used in the measurement assay in a concentration of approx. 0.95 nM.
# To determine the inhibition constants, the inhibitor concentration was varied at least over the range of an order of magnitude at a constant substrate concentration (12.5 μM in the assay), and, respectively, the steady-state velocity was determined. Km and Vmax were determined by means of v/S characteristics parallel to each inhibitor measurement. The calculation of Ki values was carried out through adjustment of the determined velocities as a function of the inhibitor concentration to the velocity equation for competitively, reversibly-binding inhibitors: […]
# T1 sequence (P09958 108-794): as the sequence (P09958 108-794, species assumed) above
row,Compound,Ki
1,CC(C)[C@H](NC(=O)[C@H](CCCNC(=N)N)NC(=O)Cc1ccccc1)C(=O)N[C@@H](CCCNC(=N)N)C(=O)NCCCCNC(=N)N [Inhibitor 2] (PhAc-Arg-Val-Arg-Agmatine),0.077 µM
2,CC(C)C(NC(=O)C(CCCNC(=N)N)NC(=O)Cc1ccccc1)C(=O)NC(CCCNC(=N)N)C(=O)NCCCCN (stereo not drawn) [Inhibitor 2a],25 µM
3,CC(C)C(NC(=O)C(CCCNC(=N)N)NC(=O)Cc1ccccc1)C(=O)NC(CCCNC(=N)N)C(=O)NCC1CCNCC1 (stereo not drawn) [Inhibitor 3a],10 µM
4,CC(C)C(NC(=O)C(CCCNC(=N)N)NC(=O)Cc1ccccc1)C(=O)NC(CCCNC(=N)N)C(=O)NCCCNC(=N)N (stereo not drawn) [Inhibitor 4],0.097 µM
5,CC(C)C(NC(=O)C(CCCNC(=N)N)NC(=O)Cc1ccccc1)C(=O)NC(CCCNC(=N)N)C(=O)NCCCN (stereo not drawn) [Inhibitor 4a],1.3 µM
6,CC(C)[C@H](NC(=O)[C@H](CCCNC(=N)N)NC(=O)Cc1ccccc1)C(=O)N[C@@H](CCCCN)C(=O)NCCCCNC(=N)N [Inhibitor 10] (PhAc-Arg-Val-Lys-Agmatine),0.049 µM
7,CC(C)[C@H](NC(=O)[C@H](CCCNC(=N)N)NC(=O)Cc1ccccc1)C(=O)N[C@@H](CCCCNC(=N)N)C(=O)NCCCCNC(=N)N [Inhibitor 11] (PhAc-Arg-Val-[hArg]-Agmatine),0.047 µM

# Same assay, conditions: Table 3; methods as in practical embodiment 6; read-out: Ki for the inhibition of furin
row,Compound,Ki
1,CC(=O)NC(CCCNC(=N)N)C(=O)NC(C(=O)NC(CCCNC(=N)N)C(=O)NCCCCN)C(C)C (stereo not drawn) [Inhibitor 12],41.2 µM
2,CC(C)C(NC(=O)C(CCCNC(=N)N)NC(=O)Cc1ccccc1)C(=O)NC(CCCCN)C(=O)NCCCCN (stereo not drawn) [Inhibitor 14],5.41 µM
3,CC(C)C(NC(=O)C(CCCNC(=N)N)NC(=O)Cc1ccccc1)C(=O)NC(CCCNC(=N)N)C(=O)NCC1CCNCC1 (stereo not drawn) [Inhibitor 15],9.71 µM
4,CCCC(=O)NC(CCCNC(=N)N)C(=O)NC(C(=O)NC(CCCNC(=N)N)C(=O)NCc1ccc(C(=N)N)cc1)C(C)C (stereo not drawn) [Inhibitor 17],0.00077 µM
5,CCCCCC(=O)NC(CCCNC(=N)N)C(=O)NC(C(=O)NC(CCCNC(=N)N)C(=O)NCc1ccc(C(=N)N)cc1)C(C)C (stereo not drawn) [Inhibitor 18],0.00082 µM
6,CCCCCCCC(=O)NC(CCCNC(=N)N)C(=O)NC(C(=O)NC(CCCNC(=N)N)C(=O)NCc1ccc(C(=N)N)cc1)C(C)C (stereo not drawn) [Inhibitor 19],0.00082 µM
7,CCCCCCCCCCCC(=O)NC(CCCNC(=N)N)C(=O)NC(C(=O)NC(CCCNC(=N)N)C(=O)NCc1ccc(C(=N)N)cc1)C(C)C (stereo not drawn) [Inhibitor 21],0.0067 µM
8,CCCCCCCCCCCCCC(=O)NC(CCCNC(=N)N)C(=O)NC(C(=O)NC(CCCNC(=N)N)C(=O)NCc1ccc(C(=N)N)cc1)C(C)C (stereo not drawn) [Inhibitor 22],0.0569 µM
9,CC(C)C(NC(=O)C(N)CCCNC(=N)N)C(=O)NC(CCCNC(=N)N)C(=O)NCc1ccc(C(=N)N)cc1 (stereo not drawn) [Inhibitor 26],0.0076 µM
10,CC(C)C(NC(=O)C(CCCNC(=N)N)NC(=O)Cc1ccc(Cl)c(Cl)c1)C(=O)NC(CCCNC(=N)N)C(=O)NCc1ccc(C(=N)N)cc1 (stereo not drawn) [Inhibitor 28],0.0012 µM
11,Cc1ccc(S(=O)(=O)NC(CCCNC(=N)N)C(=O)NC(C(=O)NC(CCCNC(=N)N)C(=O)NCc2ccc(C(=N)N)cc2)C(C)C)cc1 (stereo not drawn) [Inhibitor 29],0.0048 µM
12,CC(C)C(NC(=O)C(CCCNC(=N)N)NC(=O)Cc1ccccc1)C(=O)NC(CCCCN)C(=O)NCc1ccc(C(=N)N)cc1 (stereo not drawn) [Inhibitor 33],0.0015 µM
13,N=C(N)NCCCC(NC(=O)Cc1ccccc1)C(=O)NC(CN)C(=O)NC(CCCCN)C(=O)NCc1ccc(C(=N)N)cc1 (stereo not drawn) [Inhibitor 39],0.0037 µM

# Test system: avian influenza virus (FPV) A/FPV/Rostock/34 (H7N1)
# Assay: not given
# Format: cell-based, influenza virus A/FPV/Rostock/34 (H7N1)
# Details: 25 μM inhibitor, MDCK cells, MOI 10^-5, 72 h
row,Compound,delay of virus release in relation to the untreated control group
1,CC(C)[C@H](NC(=O)[C@H](CCCNC(=N)N)NC(=O)Cc1ccccc1)C(=O)N[C@@H](CCCNC(=N)N)C(=O)NCc1ccc(C(=N)N)cc1 [Inhibitor 1],about 24 h
